Results on 17 molecules are retold here after US9839642B2, “Beta-tetrazolyl-propionic acids as metallo-beta-lactamase inhibitors” (priority 2014, dated 2017).

Bounds are passed on as bounds.

One assay has as its target IMP-1 (Serratia marcescens, UniProt P52699). The assay is described as follows: Enzyme activity: determination of IC50, fluorescence assay with CCF2-FA substrate. Type of assay: biochemical. As to conditions: enzyme 2 pM, CCF2-FA 1.25 μM, 2 hours at 25° C.; read-out: IMP1 IC50. A digest of the protocol: (§1)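 100 mM KH2PO4 pH 7 + 0.005% Tween-20 + 10 μM ZnSO4; CCF2-FA 1.25 μM; NDM-1 1 pM, IMP-1 2 pM, VIM-1 30 pM; cpd 20–0.00063 μM final, DMSO 1:50. 2 h, 25° C. Ex 405/em 460 nm; IC50, 4-param fit.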

A further assay concerns the target VIM-1 (Pseudomonas aeruginosa, UniProt A0A0F7KYQ8). The assay is described as above. The class given is biochemical. As to conditions: enzyme 30 pM, CCF2-FA 1.25 μM, 2 hours at 25° C.; read-out: VIM1 IC50. A digest of the protocol: as §1
In a further assay the target is NDM-1 (Klebsiella pneumoniae, UniProt C7C422). The assay is described as above. As to conditions: enzyme 1 pM, CCF2-FA 1.25 μM, 2 hours at 25° C.; read-out: NDM1 IC50. Type of assay: biochemical. The method in brief:
as §1

Assay [1] concerns Escherichia coli expressing NDM-1 (CLB30005). The assay is described as follows: Antibiotic potentiation activity: synergistic concentration (MITC95) with imipenem, growth by OD600. The class given is cell-based. As to conditions: 95% inhibition of bacterial growth, strain CLB30005. The method in brief:
(§2)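 MITC95 = lowest inhibitor concentration giving 95% growth inhibition, read by absorbance after 22–24 h at 35° C. Compound range 200 μM to 0.195 μM, imipenem fixed at 1 or 4 μg/ml, bacteria in 1.1×CAMHB from saline suspension diluted 1:100.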

Assay [2] concerns Serratia marcescens expressing IMP-1 (CL5741). Described as above. Type of assay: cell-based. As to conditions: 95% inhibition of bacterial growth, strain CL5741. The method in brief:
as §2

Assay [3] relates to Klebsiella pneumoniae expressing VIM-1 (IHMA599644). The description is as above. Type of assay: cell-based. As to conditions: 95% inhibition of bacterial growth, strain IHMA599644. A digest of the protocol: as §2

IMP-1, sequence (P52699 19-246, looked up, species assumed): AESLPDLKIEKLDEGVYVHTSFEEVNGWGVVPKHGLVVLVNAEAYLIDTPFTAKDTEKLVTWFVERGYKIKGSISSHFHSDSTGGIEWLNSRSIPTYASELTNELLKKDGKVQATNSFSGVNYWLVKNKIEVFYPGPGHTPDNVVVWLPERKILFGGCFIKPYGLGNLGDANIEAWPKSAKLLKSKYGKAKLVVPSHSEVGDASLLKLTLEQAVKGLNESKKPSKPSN
NDM-1, sequence (C7C422 29-270, looked up, species assumed): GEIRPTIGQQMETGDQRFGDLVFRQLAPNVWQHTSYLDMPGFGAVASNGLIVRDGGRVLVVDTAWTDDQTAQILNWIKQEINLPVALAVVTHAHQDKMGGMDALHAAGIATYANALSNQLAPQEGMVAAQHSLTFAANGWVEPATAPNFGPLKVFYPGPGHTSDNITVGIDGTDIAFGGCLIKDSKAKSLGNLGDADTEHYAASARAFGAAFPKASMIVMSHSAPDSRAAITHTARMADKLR

On to `CCC[C@H](C(=O)O)[C@H](Cc1ccc(-c2cccc(C(N)=O)c2)cc1)c1nn[nH]n1` [Example 201, (2S)-2-[(1S)-2-(3′-carbamoylbiphenyl-4-yl)-1-(2H-tetrazol-5-yl)ethyl]pentanoic acid], for which the IC50 on IMP-1 was 29 nM; on VIM-1 it was 2.1 nM; at NDM-1, 9 nM. In assay [1], the “NDM1 EC30005 MITC95” value came to 7.8 µM. Besides, the “IMP1 SM5741 MITC95” value in assay [2] stood at 12.5 µM. Further, the “VIM1 KP599644 MITC95” value in assay [3] amounted to 62 µM.

Turning to `CCC[C@H](C(=O)O)[C@H](Cc1ccc(-c2ccc(C(=O)NC)cc2)cc1)c1nn[nH]n1` [Example 202, (2S)-2-[(1S)-2-[4′-(methylcarbamoyl)biphenyl-4-yl]-1-(2H-tetrazol-5-yl)ethyl]pentanoic acid], the IC50 at IMP-1 was found to be 22 nM; on VIM-1, 2.3 nM; at NDM-1, 5.9 nM. Besides, in assay [1], the “NDM1 EC30005 MITC95” value stood at 9.4 µM. In addition, the “IMP1 SM5741 MITC95” value in assay [2] came out at 4.7 µM. Further, in assay [3], the “VIM1 KP599644 MITC95” value amounted to 50 µM.

`CCC[C@H](C(=O)O)[C@H](Cc1ccc(-c2ccc(N3CCOCC3)nc2)cc1)c1nn[nH]n1` [Example 203, (2S)-2-[(1S)-2-[4-(6-morpholin-4-ylpyridin-3-yl)phenyl]-1-(2H-tetrazol-5-yl)ethyl]pentanoic acid]: the results for the IC50 at IMP-1, at VIM-1 and on NDM-1 were 60 nM, 4.3 nM and 14 nM, respectively. The “NDM1 EC30005 MITC95” value in assay [1] was 9.4 µM. The “IMP1 SM5741 MITC95” value in assay [2] was 9.4 µM. The “VIM1 KP599644 MITC95” value in assay [3] stood at 200 µM.

Turning to `CCC[C@H](C(=O)O)[C@H](Cc1ccc(-c2cnc(N3CCCCC3)s2)cc1)c1nn[nH]n1` [Example 204, (2S)-2-[(1S)-2-[4-(2-piperidin-1-yl-1,3-thiazol-5-yl)phenyl]-1-(2H-tetrazol-5-yl)ethyl]pentanoic acid], the IC50 at IMP-1 came out at 26 nM; at VIM-1 it was 2.1 nM; on NDM-1, 3.4 nM. In addition, the “NDM1 EC30005 MITC95” value in assay [1] was determined as 3.9 µM. Further, the “IMP1 SM5741 MITC95” value in assay [2] turned out to be 4.7 µM. In assay [3], the “VIM1 KP599644 MITC95” value amounted to 100 µM.

On to `CCC[C@H](C(=O)O)[C@H](Cc1ccc(-c2ccccc2CN2CCCCC2)cc1)c1nn[nH]n1` [Example 205, (2S)-2-[(1S)-2-[2′-(piperidin-1-ylmethyl)biphenyl-4-yl]-1-(2H-tetrazol-5-yl)ethyl]pentanoic acid], for which the half-inhibitory concentration (IC50) on IMP-1 stood at 63 nM; at VIM-1 it was 360 nM; on NDM-1, 500 nM. Further, the “NDM1 EC30005 MITC95” value in assay [1] worked out at 50 µM. Further, in assay [2], the “IMP1 SM5741 MITC95” value is 7.8 µM. Moreover, the “VIM1 KP599644 MITC95” value in assay [3] is greater than 200 µM.

Regarding `CCC[C@H](C(=O)O)[C@H](Cc1ccc(-c2cccc(CN3CCCCC3)c2)cc1)c1nn[nH]n1` [Example 206, (2S)-2-[(1S)-2-[3′-(piperidin-1-ylmethyl)biphenyl-4-yl]-1-(2H-tetrazol-5-yl)ethyl]pentanoic acid], the values for the IC50 at IMP-1, on VIM-1 and on NDM-1 were 130 nM, 7.2 nM and 82 nM, respectively. Moreover, the “NDM1 EC30005 MITC95” value in assay [1] amounted to 18.8 µM. The “IMP1 SM5741 MITC95” value in assay [2] turned out to be 18.8 µM. Besides, the “VIM1 KP599644 MITC95” value in assay [3] was determined as 50 µM.

Regarding `CCC[C@H](C(=O)O)[C@H](Cc1ccc(-c2cccc(CN3CCOCC3)c2)cc1)c1nn[nH]n1` [Example 207, (2S)-2-[(1S)-2-[3′-(morpholin-4-ylmethyl)biphenyl-4-yl]-1-(2H-tetrazol-5-yl)ethyl]pentanoic acid], the figures for the IC50 on IMP-1, at VIM-1 and on NDM-1 were 100 nM, 8 nM and 64 nM, respectively. The “NDM1 EC30005 MITC95” value in assay [1] turned out to be 16 µM. In addition, in assay [2], the “IMP1 SM5741 MITC95” value was 16 µM. Besides, the “VIM1 KP599644 MITC95” value in assay [3] is 150 µM.

Consider `CCC[C@H](C(=O)O)[C@H](Cc1ccc(-c2csc(N3CCOCC3)n2)cc1)c1nn[nH]n1` [Example 208, (2S)-2-[(1S)-2-[4-(2-morpholin-4-yl-1,3-thiazol-4-yl)phenyl]-1-(2H-tetrazol-5-yl)ethyl]pentanoic acid], for which the IC50 turned out to be 100 nM at IMP-1, 16 nM on VIM-1 and 61 nM at NDM-1. In assay [1], the “NDM1 EC30005 MITC95” value came out at 25 µM. Further, in assay [2], the “IMP1 SM5741 MITC95” value worked out at 18.8 µM. In addition, the “VIM1 KP599644 MITC95” value in assay [3] came to 200 µM.

Regarding `CCC[C@H](C(=O)O)[C@H](Cc1ccc(-c2cccc(CN)c2)cc1)c1nn[nH]n1` [Example 210, (2S)-2-[(1S)-2-[3′-(aminomethyl)biphenyl-4-yl]-1-(2H-tetrazol-5-yl)ethyl]pentanoic acid], the IC50 was determined as 130 nM on IMP-1, 8.2 nM at VIM-1 and 100 nM at NDM-1. Besides, the “NDM1 EC30005 MITC95” value in assay [1] is 6.2 µM. The “IMP1 SM5741 MITC95” value in assay [2] turned out to be 12.5 µM. Besides, the “VIM1 KP599644 MITC95” value in assay [3] was 18.8 µM.

With `CCC[C@H](C(=O)O)[C@H](Cc1ccc(-c2ccc(CO)cc2)cc1)c1nn[nH]n1` [Example 211, (2S)-2-[(1S)-2-[4′-(hydroxymethyl)biphenyl-4-yl]-1-(2H-tetrazol-5-yl)ethyl]pentanoic acid], the IC50 at IMP-1 was determined as 20 nM; at VIM-1, 3.4 nM; at NDM-1 it was 12 nM. For the same molecule, the “NDM1 EC30005 MITC95” value in assay [1] was found to be 3.1 µM. The “IMP1 SM5741 MITC95” value in assay [2] came to 2.3 µM. In assay [3], the “VIM1 KP599644 MITC95” value was determined as 25 µM.

In the case of `CCC[C@H](C(=O)O)[C@H](Cc1ccc(-c2cn(C)c(=O)n(C)c2=O)cc1)c1nn[nH]n1` [Example 212, (2S)-2-[(1S)-2-[4-(1,3-dimethyl-2,4-dioxo-1,2,3,4-tetrahydropyrimidin-5-yl)phenyl]-1-(2H-tetrazol-5-yl)ethyl]pentanoic acid], the IC50 at IMP-1 was 91 nM; at VIM-1, 15 nM; on NDM-1, 31 nM. Further, in assay [1], the “NDM1 EC30005 MITC95” value came out at 18.8 µM. Further, the “IMP1 SM5741 MITC95” value in assay [2] was 18.8 µM. Besides, in assay [3], the “VIM1 KP599644 MITC95” value was found to be 150 µM.

Consider `CCC[C@H](C(=O)O)[C@H](Cc1ccc(-c2ccc(C(C)(C)O)nc2)cc1)c1nn[nH]n1` [Example 213, (2S)-2-[(1S)-2-{4-[6-(1-hydroxy-1-methylethyl)pyridin-3-yl]phenyl}-1-(2H-tetrazol-5-yl)ethyl]pentanoic acid], for which the half-maximal inhibitory concentration (IC50) on IMP-1 is 120 nM; on VIM-1, 17 nM; on NDM-1, 28 nM. The “NDM1 EC30005 MITC95” value in assay [1] was determined as 9.4 µM. Moreover, in assay [2], the “IMP1 SM5741 MITC95” value amounted to 18.8 µM. For the same molecule, the “VIM1 KP599644 MITC95” value in assay [3] stood at 75 µM.

For `CCC[C@H](C(=O)O)[C@H](Cc1ccc(-c2ccccc2CN2CCOCC2)cc1)c1nn[nH]n1` [Example 214, (2S)-2-[(1S)-2-[2′-(morpholin-4-ylmethyl)biphenyl-4-yl]-1-(2H-tetrazol-5-yl)ethyl]pentanoic acid], the IC50 at IMP-1 was found to be 10 nM; on VIM-1, 180 nM; at NDM-1 it was 24 nM. The “NDM1 EC30005 MITC95” value in assay [1] was determined as 7.8 µM. The “IMP1 SM5741 MITC95” value in assay [2] amounted to 2.0 µM. The “VIM1 KP599644 MITC95” value in assay [3] was greater than 200 µM.

Turning to `CCC[C@H](C(=O)O)[C@H](Cc1ccc(-c2cnn(C)c2)cc1)c1nnn[nH]1` [Example 233, (2S)-2-[(1S)-2-[4-(1-methyl-1H-pyrazol-4-yl)phenyl]-1-(1H-tetrazol-5-yl)ethyl]pentanoic acid], the IC50 is 52 nM on IMP-1, 4 nM at VIM-1 and 18 nM at NDM-1. The “NDM1 EC30005 MITC95” value in assay [1] came out at 18.8 µM. Further, in assay [2], the “IMP1 SM5741 MITC95” value amounted to 16 µM. Also, the “VIM1 KP599644 MITC95” value in assay [3] amounted to 75 µM.

For the molecule `CCC[C@H](C(=O)O)[C@H](Cc1ccc(-c2ccc3c(c2)CNC3=O)cc1)c1nnn[nH]1` [Example 234, (2S)-2-[(1S)-2-[4-(1-oxo-2,3-dihydro-1H-isoindol-5-yl)phenyl]-1-(1H-tetrazol-5-yl)ethyl]pentanoic acid], the IC50 came out at 56 nM at IMP-1, 2.9 nM on VIM-1 and 17 nM at NDM-1. The “NDM1 EC30005 MITC95” value in assay [1] was 25 µM. In addition, the “IMP1 SM5741 MITC95” value in assay [2] was 7.0 µM. The “VIM1 KP599644 MITC95” value in assay [3] was found to be 50 µM.

Regarding `CCC[C@H](C(=O)O)[C@H](Cc1ccc(-c2c(C)nn(C)c2C)cc1)c1nnn[nH]1` [Example 235, (2S)-2-{(1S)-1-(1H-tetrazol-5-yl)-2-[4-(1,3,5-trimethyl-1H-pyrazol-4-yl)phenyl]ethyl}pentanoic acid], the concentration for half-maximal inhibition (IC50) at IMP-1 was 5.8 nM; at VIM-1, 7.6 nM; on NDM-1 it was 8.3 nM. In assay [1], the “NDM1 EC30005 MITC95” value came to 100 µM. Moreover, the “IMP1 SM5741 MITC95” value in assay [2] came out at 0.78 µM. Moreover, the “VIM1 KP599644 MITC95” value in assay [3] was greater than 200 µM.

As to `CCC[C@H](C(=O)O)[C@H](Cc1ccc(-c2ccc3c(c2)CNCC3)cc1)c1nnn[nH]1` [Example 236, (2S)-2-[(1S)-2-[4-(1,2,3,4-tetrahydroisoquinolin-7-yl)phenyl]-1-(1H-tetrazol-5-yl)ethyl]pentanoic acid], the IC50 at IMP-1 stood at 71 nM; on VIM-1, 4.4 nM; on NDM-1, 99 nM. The “NDM1 EC30005 MITC95” value in assay [1] is 12.5 µM. Also, the “IMP1 SM5741 MITC95” value in assay [2] amounted to 7.8 µM. Further, in assay [3], the “VIM1 KP599644 MITC95” value stood at 50 µM.
